{
  "source": "patent US8067619B2",
  "about": "“Coumarin derivatives as ion channel openers” (Janssen Pharmaceutica N.V., priority 2005, dated 2011)",
  "molecular_target": "T1, KATP channels (Homo sapiens, UniProt O60706+Q14654)",
  "T1 construct": "TE671 human medulloblastoma cells were obtained from ATCC; host or cells: TE671 human medulloblastoma cells",
  "T1 sequence (O60706 1-1549 isoform O60706-2)": "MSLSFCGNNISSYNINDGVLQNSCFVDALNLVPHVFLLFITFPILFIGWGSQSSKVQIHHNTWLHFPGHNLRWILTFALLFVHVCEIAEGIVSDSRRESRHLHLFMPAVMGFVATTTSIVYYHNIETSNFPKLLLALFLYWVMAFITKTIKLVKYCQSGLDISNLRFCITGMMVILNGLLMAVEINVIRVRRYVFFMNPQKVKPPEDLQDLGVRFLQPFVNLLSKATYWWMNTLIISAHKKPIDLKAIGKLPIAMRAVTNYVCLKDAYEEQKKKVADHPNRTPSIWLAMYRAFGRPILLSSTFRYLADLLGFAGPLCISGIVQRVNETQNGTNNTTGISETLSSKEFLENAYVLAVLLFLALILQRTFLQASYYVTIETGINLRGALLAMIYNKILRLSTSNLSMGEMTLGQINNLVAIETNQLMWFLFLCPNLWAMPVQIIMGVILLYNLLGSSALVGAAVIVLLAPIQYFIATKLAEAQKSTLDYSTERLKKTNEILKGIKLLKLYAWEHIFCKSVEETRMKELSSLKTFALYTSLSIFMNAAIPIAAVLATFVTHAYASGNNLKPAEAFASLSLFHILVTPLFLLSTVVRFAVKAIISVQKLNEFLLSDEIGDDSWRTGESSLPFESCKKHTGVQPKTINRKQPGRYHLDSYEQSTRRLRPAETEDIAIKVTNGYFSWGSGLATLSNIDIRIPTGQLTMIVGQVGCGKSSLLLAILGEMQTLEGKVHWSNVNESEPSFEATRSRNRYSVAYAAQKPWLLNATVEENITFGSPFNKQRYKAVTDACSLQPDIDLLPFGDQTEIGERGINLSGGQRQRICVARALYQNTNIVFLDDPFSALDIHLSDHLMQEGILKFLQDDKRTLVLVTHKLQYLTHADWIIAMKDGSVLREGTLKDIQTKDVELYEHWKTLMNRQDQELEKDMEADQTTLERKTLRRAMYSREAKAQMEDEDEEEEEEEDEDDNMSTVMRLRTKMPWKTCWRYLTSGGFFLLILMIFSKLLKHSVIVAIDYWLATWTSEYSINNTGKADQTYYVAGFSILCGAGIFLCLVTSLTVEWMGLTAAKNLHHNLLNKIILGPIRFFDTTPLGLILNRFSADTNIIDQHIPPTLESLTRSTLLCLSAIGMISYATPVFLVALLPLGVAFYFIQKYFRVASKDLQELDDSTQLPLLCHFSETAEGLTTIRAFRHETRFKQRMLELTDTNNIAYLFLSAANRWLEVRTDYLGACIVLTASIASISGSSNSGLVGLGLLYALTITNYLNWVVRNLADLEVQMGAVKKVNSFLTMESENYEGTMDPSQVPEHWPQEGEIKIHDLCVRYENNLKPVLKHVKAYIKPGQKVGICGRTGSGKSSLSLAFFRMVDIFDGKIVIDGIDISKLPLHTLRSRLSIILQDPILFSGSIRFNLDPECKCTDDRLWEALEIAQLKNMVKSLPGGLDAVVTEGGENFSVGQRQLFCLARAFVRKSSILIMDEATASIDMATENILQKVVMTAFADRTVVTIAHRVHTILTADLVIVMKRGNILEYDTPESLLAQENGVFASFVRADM",
  "T1 sequence (Q14654 whole entry)": "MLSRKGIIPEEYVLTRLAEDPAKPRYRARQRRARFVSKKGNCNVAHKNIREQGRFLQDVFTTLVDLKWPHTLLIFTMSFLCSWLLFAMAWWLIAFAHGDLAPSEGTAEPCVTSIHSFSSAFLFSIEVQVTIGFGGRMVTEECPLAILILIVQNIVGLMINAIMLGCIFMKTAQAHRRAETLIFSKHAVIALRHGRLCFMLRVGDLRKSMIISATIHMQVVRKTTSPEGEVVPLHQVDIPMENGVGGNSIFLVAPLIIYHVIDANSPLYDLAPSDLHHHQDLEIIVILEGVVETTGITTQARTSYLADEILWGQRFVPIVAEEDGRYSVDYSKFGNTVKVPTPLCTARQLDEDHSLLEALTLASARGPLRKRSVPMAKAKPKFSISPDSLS",
  "experiment": "Potassium Channel Assay (FLIPR membrane potential, TE671 cells)",
  "assay_type": "cell-based",
  "conditions": "TE671 human medulloblastoma cells, Membrane Potential Assay Dye, room temperature, hyperpolarization from KATP channel opening seen as decrease in fluorescent intensity",
  "experimental": "TE671 human medulloblastoma cells were obtained from ATCC and grown in Dulbecco's modified Eagle's medium (DMEM) supplemented with 10% fetal bovine serum, 100 U/ml penicillin and 100 U/ml streptomycine.\nThe day before testing, the cells were plated in black 96-well plates at 50K/well. On the day of testing, the growth media was removed, then 100 μl of FLIPR buffer (20 mM HEPES, 120 mM NaCl, 2 mM KCl, 2 mM CaCl2, 1 mM MgCl2, 5 mM Glucose) and 100 μl of Membrane Potential Assay Dye (Molecular Devices) dissolved in FLIPR buffer were added to each well. The cells were incubated at room temperature for 15 to 30 min.\nThe effect of test compounds on KATP channels were evaluated on a fluorometric imaging plate reader (FLIPR, Molecular Devices) at room temperature. After a baseline period, 50 μl of 5× stock solution of test compound prepared in FLIPR buffer was added and fluorescent change was monitored for 3 minutes. After this reading, glyburide, a KATP channel blocker, was added to a final concentration of 5 μM to check the specificity of the test compound as a KATP channel openers. Hyperpolarization resulting from KATP channel opening was observed as a decrease in fluorescent intensity.",
  "data": [
    {"smiles": "COCCc1c(-c2ccc(OC)cc2OC)c(=O)oc2cc(OS(=O)(=O)C(F)(F)F)ccc12", "note": "[Compound 2, Trifluoro-methanesulfonic acid 3-(2,4-dimethoxy-phenyl)-4-(2-methoxy-ethyl)-2-oxo-2H-chromen-7-yl ester]", "values": [
      {"measurement": "EC50", "value": 9.55, "unit": "µM"}
    ]},
    {"smiles": "Cc1c(C(=O)c2ccc(Cl)cc2)c(=O)oc2cc(C#N)ccc12", "note": "[Compound 3, 3-(4-Chloro-benzoyl)-4-methyl-2-oxo-2H-chromene-7-carbonitrile]", "values": [
      {"measurement": "EC50", "value": "> 30", "unit": "µM"}
    ]},
    {"smiles": "N#Cc1ccc2c(CC(=O)c3ccc(Cl)cc3)cc(=O)oc2c1", "note": "[Compound 4, 4-[2-(4-Chloro-phenyl)-2-oxo-ethyl]-2-oxo-2H-chromene-7-carbonitrile]", "values": [
      {"measurement": "EC50", "value": 15.9, "unit": "µM"}
    ]},
    {"smiles": "COCCc1c(-c2ccc(OC)cc2OC)c(=O)oc2cc(C#N)ccc12", "note": "[Compound 6, 3-(2,4-Dimethoxy-phenyl)-4-(2-methoxy-ethyl)-2-oxo-2H-chromene-7-carbonitrile]", "values": [
      {"measurement": "EC50", "value": "> 30", "unit": "µM"}
    ]},
    {"smiles": "O=c1oc2cc(OS(=O)(=O)C(F)(F)F)ccc2c(CCO)c1-c1ccc(O)cc1O", "note": "[Compound 7, Trifluoro-methanesulfonic acid 3-(2,4-dihydroxy-phenyl)-4-(2-hydroxy-ethyl)-2-oxo-2H-chromen-7-yl ester]", "values": [
      {"measurement": "EC50", "value": 19.5, "unit": "µM"}
    ]},
    {"smiles": "N#Cc1ccc2c(CCO)c(-c3ccc(O)cc3O)c(=O)oc2c1", "note": "[Compound 8, 3-(2,4-Dihydroxy-phenyl)-4-(2-hydroxy-ethyl)-2-oxo-2H-chromene-7-carbonitrile]", "values": [
      {"measurement": "EC50", "value": 23.2, "unit": "µM"}
    ]},
    {"smiles": "C=Cc1c(-c2ccc(O)cc2O)c(=O)oc2cc(C#N)ccc12", "note": "[Compound 9, 3-(2,4-Dihydroxy-phenyl)-2-oxo-4-vinyl-2H-chromene-7-carbonitrile]", "values": [
      {"measurement": "EC50", "value": 3.29, "unit": "µM"}
    ]},
    {"smiles": "C=Cc1c(-c2ccc(C#N)cc2O)c(=O)oc2cc(F)ccc12", "note": "[Compound 11, 44-(7-Fluoro-2-oxo-4-vinyl-2H-chromen-3-yl)-3-hydroxy-benzonitrile]", "values": [
      {"measurement": "EC50", "value": "> 30", "unit": "µM"}
    ]},
    {"smiles": "O=c1cc(CC(O)c2ccc(Cl)cc2Cl)c2ccc(OS(=O)(=O)C(F)(F)F)cc2o1", "note": "(stereo not shown) [Compound 12, Trifluoro-methanesulfonic acid 4-[2-(2,4-dichloro-phenyl)-2-hydroxy-ethyl]-2-oxo-2H-chromen-7-yl ester]", "values": [
      {"measurement": "EC50", "value": 6.58, "unit": "µM"}
    ]},
    {"smiles": "O=C(Cc1cc(=O)oc2cc(OS(=O)(=O)C(F)(F)F)ccc12)Nc1c(Cl)cc(Cl)cc1Cl", "note": "[Compound 13, Trifluoro-methanesulfonic acid 2-oxo-4-[(2,4,6-trichloro-phenylcarbamoyl)-methyl]-2H-chromen-7-yl ester]", "values": [
      {"measurement": "EC50", "value": 8.76, "unit": "µM"}
    ]},
    {"smiles": "N#Cc1ccc2c(CC(O)c3ccc(Cl)cc3Cl)cc(=O)oc2c1", "note": "(stereo not shown) [Compound 14, 4-[2-(2,4-Dichloro-phenyl)-2-hydroxy-ethyl]-2-oxo-2H-chromene-7-carbonitrile]", "values": [
      {"measurement": "EC50", "value": "> 30", "unit": "µM"}
    ]},
    {"smiles": "N#Cc1ccc2c(CC(=O)Nc3ccc(F)cc3F)cc(=O)oc2c1", "note": "[Compound 15, 2-(7-Cyano-2-oxo-2H-chromen-4-yl)-N-(2,4-difluoro-phenyl)-acetamide]", "values": [
      {"measurement": "EC50", "value": 13.9, "unit": "µM"}
    ]},
    {"smiles": "N#Cc1ccc2c(CC(=O)Nc3ccccc3F)cc(=O)oc2c1", "note": "[Compound 16, 2-(7-Cyano-2-oxo-2H-chromen-4-yl)-N-(2-fluoro-phenyl)-acetamide]", "values": [
      {"measurement": "EC50", "value": 3.84, "unit": "µM"}
    ]},
    {"smiles": "N#Cc1ccc2c(CC(=O)Nc3ccccc3Cl)cc(=O)oc2c1", "note": "[Compound 17, N-(2-Chloro-phenyl)-2-(7-cyano-2-oxo-2H-chromen-4-yl)-acetamide]", "values": [
      {"measurement": "EC50", "value": 19.5, "unit": "µM"}
    ]},
    {"smiles": "N#Cc1ccc2c(CC(=O)Nc3cccc(Cl)c3)cc(=O)oc2c1", "note": "[Compound 18, N-(3-Chloro-phenyl)-2-(7-cyano-2-oxo-2H-chromen-4-yl)-acetamide]", "values": [
      {"measurement": "EC50", "value": 7.74, "unit": "µM"}
    ]},
    {"smiles": "N#Cc1ccc2c(CC(=O)Nc3cccc(Cl)c3Cl)cc(=O)oc2c1", "note": "[Compound 19, 2-(7-Cyano-2-oxo-2H-chromen-4-yl)-N-(2,3-dichloro-phenyl)-acetamide]", "values": [
      {"measurement": "EC50", "value": 10.7, "unit": "µM"}
    ]},
    {"smiles": "N#Cc1ccc2oc(=O)cc(CC(O)c3ccc(Cl)cc3Cl)c2c1", "note": "(stereo not shown) [Compound 20, 4-[2-(2,4-Dichloro-phenyl)-2-hydroxy-ethyl]-2-oxo-2H-chromene-6-carbonitrile]", "values": [
      {"measurement": "EC50", "value": "> 30", "unit": "µM"}
    ]},
    {"smiles": "N#Cc1ccc2oc(=O)cc(CC(=O)c3cccc(Cl)c3)c2c1", "note": "[Compound 21, 4-[2-(3-Chloro-phenyl)-2-oxo-ethyl]-2-oxo-2H-chromene-6-carbonitrile]", "values": [
      {"measurement": "EC50", "value": "> 30", "unit": "µM"}
    ]},
    {"smiles": "O=C(Cc1cc(=O)oc2ccc(OS(=O)(=O)C(F)(F)F)cc12)c1cccc(Cl)c1", "note": "[Compound 22, Trifluoro-methanesulfonic acid 4-[2-(3-chloro-phenyl)-2-oxo-ethyl]-2-oxo-2H-chromen-6-yl ester]", "values": [
      {"measurement": "EC50", "value": 19.9, "unit": "µM"}
    ]}
  ]
}
